Data on 9 compounds can be found in patent US11834433B2, “Compounds” (INFLAZOME LIMITED, priority 2018, dated 2023).

The assay has as its system NLRP3. Briefly: THP-1 cells pyroptosis assay (LPS + nigericin, resazurin read-out). In kind it is cell-based. To be noted: Homo sapiens, 1 μg/ml LPS, 5 μM nigericin, NLRP3 inhibitory activity. The method, then:
THP-1 cells (ATCC #TIB-202) were grown in RPMI containing L-glutamine (Gibco #11835) supplemented with 1 mM sodium pyruvate (Sigma #S8636) and penicillin (100 units/ml)/streptomycin (0.1 mg/ml) (Sigma #P4333) in 10% Fetal Bovine Serum (FBS) (Sigma #F0804). The cells were routinely passaged and grown to confluency (˜10^6 cells/ml). On the day of the experiment, THP-1 cells were harvested and resuspended into RPMI medium (without FBS). The cells were then counted and viability (>90%) checked by Trypan blue (Sigma #T8154). Appropriate dilutions were made to give a concentration of 625,000 cells/ml. To this diluted cell solution was added LPS (Sigma #L4524) to give a 1 μg/ml Final Assay Concentration (FAC). 40 μl of the final preparation was aliquoted into each well of a 96-well plate. The plate thus prepared was used for compound screening. The following method step-by-step assay was followed for compound screening. • 1. Seed THP-1 cells (25,000 cells/well) containing 1.0 μg/ml LPS in 40 μl of RPMI medium (without FBS) in 96-well, black walled, clear bottom cell culture plates coated with poly-D-lysine (VWR #734-0317) • 2. Add 5 μl compound (8 points half-log dilution, with 10 μM top dose) or vehicle (DMSO 0.1% FAC) to the appropriate wells • 3. Incubate for 3 hrs at 37° C., 5% CO2 • 4. Add 5 μl nigericin (Sigma #N7143) (FAC 5 μM) to all wells • 5. Incubate for 1 hr at 37° C., 5% CO2 • 6. At the end of the incubation period, spin plates at 300×g for 3 mins and remove supernatant • 7. Then add 50 μl of resazurin (Sigma #R7017) (FAC 100 μM resazurin in RPMI medium without FBS) and incubate plates for a further 1-2 hrs at 37° C. and 5% CO2 • 8. Plates were read in an Envision reader at Ex 560 nm and Em 590 nm • 9. IC50 data is fitted to a non-linear regression equation (log inhibitor vs response-variable slope 4-parameters) [table]

Each structure is given as a SMILES string. Structures can show the parent of a compound that is named as a salt. Where only a bound is given, the exact number is not on record here.

As to `COCC(C)(C)n1ccc(S(=O)(=O)NC(=O)Cc2c(-c3ccnc(OC)c3)cc(F)cc2C(C)C)n1` [Example 8], the IC50 (commonly the midpoint of a concentration-inhibition curve) is ≤ 5 µM. The result for `COC(C)(C)Cn1ccc(S(=O)(=O)NC(=O)Cc2c3c(cc4c2CCC4)CCC3)n1` [Example 4, 2-(1,2,3,5,6,7-Hexahydro-s-indacen-4-yl)-N-((1-(2-methoxy-2-methylpropyl)-1H-pyrazol-3-yl)sulfonyl)acetamide] reads ≤ 5 µM. Next, `COC1(c2cc(S(=O)(=O)NC(=O)Cc3c4c(cc5c3CCC5)CCC4)nn2C(C)C)COC1` [Example 1, 2-(1,2,3,5,6,7-Hexahydro-s-indacen-4-yl)-N-((1-isopropyl-5-(3-methoxyoxetan-3-yl)-1H-pyrazol-3-yl)sulfonyl)acetamide]: ≤ 5 µM; `COc1cc(-c2cc(F)cc(C(C)C)c2CC(=O)NS(=O)(=O)c2ccn(C(C)(C)CO)n2)ccn1` [Example 9]: ≤ 5 µM; `COC1(c2cc(S(=O)(=O)NC(=O)Cc3c4c(cc5c3CCC5)CCC4)nn2C2CC2)COC1` [Example 3, N-((1-Cyclopropyl-5-(3-methoxyoxetan-3-yl)-1H-pyrazol-3-yl)sulfonyl)-2-(1,2,3,5,6,7-hexahydro-s-indacen-4-yl)acetamide]: ≤ 5 µM. With `COC1(c2cc(S(=O)(=O)NC(=O)Cc3c(C(C)C)cc(F)cc3C(C)C)nn2C(C)C)COC1` [Example 5, 2-(4-Fluoro-2,6-diisopropylphenyl)-N-((1-isopropyl-5-(3-methoxyoxetan-3-yl)-1H-pyrazol-3-yl)sulfonyl)acetamide], the IC50 was ≤ 5 µM. For the compound `COc1cc(-c2cc(F)cc(C(C)C)c2CC(=O)NS(=O)(=O)c2cnn(CC(C)(C)O)c2)ccn1` [Example 7], the IC50 was ≤ 5 µM. Next, `COC1(c2cc(S(=O)(=O)NC(=O)Cc3c(-c4ccnc(C#N)c4)ccc4c3CCC4)nn2C(C)C)COC1` [Example 2, 2-(5-(2-Cyanopyridin-4-yl)-2,3-dihydro-1H-inden-4-yl)-N-((1-isopropyl-5-(3-methoxyoxetan-3-yl)-1H-pyrazol-3-yl)sulfonyl)acetamide, potassium Salt]: ≤ 10 µM.

In the case of `CC(C)c1cc(F)cc(C(C)C)c1CC(=O)NS(=O)(=O)c1ccn(C[C@@H](C)O)n1` [Example 6, (R)-2-(4-Fluoro-2,6-diisopropylphenyl)-N-((1-(2-hydroxypropyl)-1H-pyrazol-3-yl)sulfonyl)acetamide], the half-inhibitory concentration (IC50) was ≤ 5 µM.
